{"source": "PubChem BioAssay (NCI)", "note": "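Grown in 96-well plates, cells were treated for 48 hours with each compound at five concentrations. Insufficient inhibition: endpoint recorded as highest concentration tested. At the GI50, growth is halved. TGI denotes the concentration required for complete inhibition of growth.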", "data": [{"tested_on": "SF-268 CNS", "assay": "inhibition of tumour cell growth, NCI panel, 48 h", "units": {"GI50": "µM", "TGI": "µM"}, "values": [{"smiles": "COc1cnc2c(c1)C(=O)c1c-2n(CCCN2CCOCC2)c(=O)c2cc(F)ccc12", "GI50": 0.265, "TGI": "> 100"}, {"smiles": "CCOC(=O)CCC1(C(=O)OCC)CCCCC1=O", "note": "(centres undefined)", "TGI": "> 100"}, {"smiles": "CCOC1Oc2ccccc2C(=O)/C1=C/Nc1ccc(C(C)=O)cc1", "note": "(centres undefined)", "GI50": 33.7, "TGI": "> 100"}, {"smiles": "Cc1nc2c(ccc3ncccc32)[nH]1", "TGI": "> 100"}, {"smiles": "O=C(CCNC12CC3CC(CC(C3)C1)C2)c1ccccc1", "TGI": "> 100"}, {"smiles": "COc1cccc(-c2cc(-c3cccc(NS(C)(=O)=O)c3)nc(N)c2C#N)c1O", "GI50": 0.587, "TGI": "> 100"}, {"smiles": "CCN1CCN(Cc2ccc(NC(=O)c3cccc(C#Cc4cccc5[nH]nc(N)c45)c3)cc2C(F)(F)F)CC1", "GI50": 0.62, "TGI": 2.01}, {"smiles": "Cc1cc(N(CCC#N)CCC#N)ccc1N=Nc1ccc(S(N)(=O)=O)cc1", "TGI": "> 100"}, {"smiles": "CC(=O)[CH-]C(=O)c1ccccc1.CC(=O)[CH-]C(=O)c1ccccc1.CN(C)c1ccc([O-])cc1.CN(C)c1ccc([O-])cc1.Cl.[Ti+4]", "GI50": "> 31.6", "TGI": "> 31.6"}, {"smiles": "CCN(CC)N=Nc1c(C(N)=O)n[nH]c1C", "TGI": "> 100"}, {"smiles": "Nc1ccccc1S(=O)(=O)N(CC(=O)O)c1ccccc1", "TGI": "> 100"}, {"smiles": "CCOC(=O)C(C)(C)Oc1ccc2c(-c3ccccc3)cc(=O)oc2c1", "TGI": "> 100"}, {"smiles": "O=C(Nc1ccc(F)cc1)Nc1ccc(Cl)c([N+](=O)[O-])c1", "GI50": 4.42, "TGI": 17.3}, {"smiles": "CNC(=S)OCCC(C)CCCC(C)C", "note": "(centres undefined)", "TGI": 30.7}, {"smiles": "COC1/C=C/OC2(C)Oc3c(C)c(O)c4c(O)c(c(/C=N/Nc5ccc([N+](=O)[O-])cc5[N+](=O)[O-])c(O)c4c3C2=O)NC(=O)C(C)=C/C=C/C(C)C(O)C(C)C(O)C(C)C(OC(C)=O)C1C", "note": "(centres undefined)", "GI50": 1.59, "TGI": 11.4}, {"smiles": "COC(=O)/C(C#N)=C1\\NC(=O)c2ccccc21", "TGI": "> 100"}, {"smiles": "Cc1ccc(NC(=O)Nc2ccc(-c3cccnc3)cc2N2CCC(CO)CC2)cc1", "GI50": 3.05, "TGI": "> 100"}]}, {"tested_on": "CAKI-1 renal", "assay": "inhibition of tumour cell growth, NCI panel, 48 h", "units": {"GI50": "µM", "TGI": "µM"}, "values": [{"smiles": "CN(C)c1ccc(/C=C\\C2=[N+](C)c3ccccc3C2(C)C)cc1", "GI50": 1.82, "TGI": 20.6}, {"smiles": "COc1cc2c(c3oc4c(O)cccc4c(=O)c13)CC(C(C)(O)CO)O2", "note": "(centres undefined)", "TGI": "> 100"}, {"smiles": "CC(=O)OC1OC([C@@H]2c3cccc(O)c3C(=O)c3c(O)cc(C)cc32)C(O)C(O)C1O", "note": "(some centres undefined)", "GI50": 0.0269, "TGI": 0.241}, {"smiles": "Nc1nc(-n2c(-c3ccccc3)nc3c(Br)cc(Br)cc3c2=O)nnc1-c1cccc(Cl)c1Cl", "GI50": 17, "TGI": "> 100"}, {"smiles": "C[N+](C)(C)CC(=O)N/N=C(/CC(=O)CC(C1=C(O)c2ccccc2OC1)c1ccccc1)C(=O)Nc1cccc(Cl)c1", "note": "(centres undefined)", "TGI": "> 100"}, {"smiles": "O=C1/C(=C/c2ccc(O)c(O)c2)CCC/C1=C\\c1ccc(O)c(O)c1", "TGI": 12.5}, {"smiles": "Cc1c(C(=O)C/C(=N/NC(=O)c2ccccc2O)C(=O)Nc2ccccc2C(C)C)[n+](=O)c2ccccc2n1[O-]", "TGI": "> 100"}, {"smiles": "CCCCCCCCCCCC(=O)OCCOCCOCCOCCOCCOCc1ccccc1", "TGI": "> 100"}, {"smiles": "COC(=O)/C=C1\\S/C(=N\\NC(=O)c2cc3ccc2/C=C\\c2ccc(cc2)/C=C\\3)N(c2ccccc2)C1=O", "GI50": 3.74, "TGI": 30}, {"smiles": "COC([CH2][Hg][n]1cnc2c1c(=O)n(C)c(=O)n2C)CN1C(=O)c2ccccc2S1(=O)=O", "note": "(centres undefined)", "GI50": "> 100", "TGI": "> 100"}, {"smiles": "CCCC1C(=O)CCc2c(OC)ccc(OC)c21", "note": "(centres undefined)", "TGI": "> 100"}, {"smiles": "O=C(CCc1nc(=S)[nH][nH]1)Nc1cc(Cl)c(Cl)cc1Cl", "TGI": "> 100"}, {"smiles": "Cc1ccc(S(=O)(=O)OC[C@@H]2CO2)cc1", "TGI": "> 100"}, {"smiles": "C=CCO[C@H]1CO[C@H]2[C@@H]1OC[C@@H]2Oc1ccc(Nc2ccnc(Nc3ccc(O[C@H]4CO[C@H]5[C@@H]4OC[C@@H]5OCC=C)c(Cl)c3)n2)cc1Cl", "GI50": 1.73, "TGI": 3.1}, {"smiles": "CCn1c(C)nn2c(=O)c3ccccc3nc2c1=O", "TGI": "> 100"}, {"smiles": "CCOC1Oc2ccccc2C(=O)/C1=C/Nc1ccc(C(C)=O)cc1", "note": "(centres undefined)", "GI50": 19, "TGI": 45.3}, {"smiles": "Cc1nc2c(ccc3ncccc32)[nH]1", "TGI": "> 100"}, {"smiles": "COc1cccc(-c2cc(-c3cccc(NS(C)(=O)=O)c3)nc(N)c2C#N)c1O", "GI50": 0.141, "TGI": 88.9}, {"smiles": "CCN1CCN(Cc2ccc(NC(=O)c3cccc(C#Cc4cccc5[nH]nc(N)c45)c3)cc2C(F)(F)F)CC1", "GI50": 0.485, "TGI": 1.76}, {"smiles": "Cc1cc(N(CCC#N)CCC#N)ccc1N=Nc1ccc(S(N)(=O)=O)cc1", "TGI": "> 100"}, {"smiles": "CC(=O)[CH-]C(=O)c1ccccc1.CC(=O)[CH-]C(=O)c1ccccc1.CN(C)c1ccc([O-])cc1.CN(C)c1ccc([O-])cc1.Cl.[Ti+4]", "GI50": 21, "TGI": "> 31.6"}, {"smiles": "CCN(CC)N=Nc1c(C(N)=O)n[nH]c1C", "TGI": "> 100"}, {"smiles": "CCC[CH2][Sn]([CH2]CCC)([S]c1cccc2cccnc12)[S]c1cccc2cccnc12", "GI50": 0.123, "TGI": 0.342}, {"smiles": "Nc1ccccc1S(=O)(=O)N(CC(=O)O)c1ccccc1", "TGI": "> 100"}, {"smiles": "CNC(=S)OCCC(C)CCCC(C)C", "note": "(centres undefined)", "TGI": 31.7}, {"smiles": "COC1/C=C/OC2(C)Oc3c(C)c(O)c4c(O)c(c(/C=N/Nc5ccc([N+](=O)[O-])cc5[N+](=O)[O-])c(O)c4c3C2=O)NC(=O)C(C)=C/C=C/C(C)C(O)C(C)C(O)C(C)C(OC(C)=O)C1C", "note": "(centres undefined)", "GI50": 2.9, "TGI": "> 50"}, {"smiles": "Cc1ccc(NC(=O)Nc2ccc(-c3cccnc3)cc2N2CCC(CO)CC2)cc1", "GI50": 3.82, "TGI": "> 100"}]}, {"tested_on": "HCT-15 colon", "assay": "inhibition of tumour cell growth, NCI panel, 48 h", "units": {"GI50": "µM", "TGI": "µM"}, "values": [{"smiles": "CN(C)c1ccc(/C=C\\C2=[N+](C)c3ccccc3C2(C)C)cc1", "GI50": 4.18, "TGI": "> 69.7"}, {"smiles": "COc1cc2c(c3oc4c(O)cccc4c(=O)c13)CC(C(C)(O)CO)O2", "note": "(centres undefined)", "TGI": "> 100"}, {"smiles": "CC(=O)OC1OC([C@@H]2c3cccc(O)c3C(=O)c3c(O)cc(C)cc32)C(O)C(O)C1O", "note": "(some centres undefined)", "GI50": 0.0305, "TGI": 1.46}, {"smiles": "Nc1nc(-n2c(-c3ccccc3)nc3c(Br)cc(Br)cc3c2=O)nnc1-c1cccc(Cl)c1Cl", "GI50": 3.1, "TGI": 21.9}, {"smiles": "C[N+](C)(C)CC(=O)N/N=C(/CC(=O)CC(C1=C(O)c2ccccc2OC1)c1ccccc1)C(=O)Nc1cccc(Cl)c1", "note": "(centres undefined)", "TGI": "> 100"}, {"smiles": "O=C1/C(=C/c2ccc(O)c(O)c2)CCC/C1=C\\c1ccc(O)c(O)c1", "TGI": 33.3}, {"smiles": "Cc1c(C(=O)C/C(=N/NC(=O)c2ccccc2O)C(=O)Nc2ccccc2C(C)C)[n+](=O)c2ccccc2n1[O-]", "TGI": "> 100"}, {"smiles": "CCCCCCCCCCCC(=O)OCCOCCOCCOCCOCCOCc1ccccc1", "TGI": "> 100"}, {"smiles": "COC(=O)/C=C1\\S/C(=N\\NC(=O)c2cc3ccc2/C=C\\c2ccc(cc2)/C=C\\3)N(c2ccccc2)C1=O", "GI50": 1.87, "TGI": 4.05}, {"smiles": "COC([CH2][Hg][n]1cnc2c1c(=O)n(C)c(=O)n2C)CN1C(=O)c2ccccc2S1(=O)=O", "note": "(centres undefined)", "GI50": "> 100", "TGI": "> 100"}, {"smiles": "CCCC1C(=O)CCc2c(OC)ccc(OC)c21", "note": "(centres undefined)", "TGI": "> 100"}, {"smiles": "O=C(CCc1nc(=S)[nH][nH]1)Nc1cc(Cl)c(Cl)cc1Cl", "TGI": "> 100"}, {"smiles": "Cc1ccc(S(=O)(=O)OC[C@@H]2CO2)cc1", "TGI": "> 100"}, {"smiles": "C=CCO[C@H]1CO[C@H]2[C@@H]1OC[C@@H]2Oc1ccc(Nc2ccnc(Nc3ccc(O[C@H]4CO[C@H]5[C@@H]4OC[C@@H]5OCC=C)c(Cl)c3)n2)cc1Cl", "GI50": 1.48, "TGI": 3.06}, {"smiles": "CCn1c(C)nn2c(=O)c3ccccc3nc2c1=O", "TGI": "> 100"}, {"smiles": "CCOC1Oc2ccccc2C(=O)/C1=C/Nc1ccc(C(C)=O)cc1", "note": "(centres undefined)", "GI50": 17.4, "TGI": 46.3}, {"smiles": "Cc1nc2c(ccc3ncccc32)[nH]1", "TGI": "> 100"}, {"smiles": "O=C(CCNC12CC3CC(CC(C3)C1)C2)c1ccccc1", "TGI": 40.2}, {"smiles": "COc1cccc(-c2cc(-c3cccc(NS(C)(=O)=O)c3)nc(N)c2C#N)c1O", "GI50": 0.0824, "TGI": "> 100"}, {"smiles": "Cc1cc(N(CCC#N)CCC#N)ccc1N=Nc1ccc(S(N)(=O)=O)cc1", "TGI": "> 100"}, {"smiles": "CC(=O)[CH-]C(=O)c1ccccc1.CC(=O)[CH-]C(=O)c1ccccc1.CN(C)c1ccc([O-])cc1.CN(C)c1ccc([O-])cc1.Cl.[Ti+4]", "GI50": 25.5, "TGI": "> 31.6"}, {"smiles": "CCN(CC)N=Nc1c(C(N)=O)n[nH]c1C", "TGI": "> 100"}, {"smiles": "CCC[CH2][Sn]([CH2]CCC)([S]c1cccc2cccnc12)[S]c1cccc2cccnc12", "GI50": 0.176, "TGI": 0.411}, {"smiles": "OCC1=CC(NC2CC(CO)C(O)C(O)C2O)C(O)C(O)C1O", "note": "(centres undefined)", "TGI": "> 100"}, {"smiles": "Nc1ccccc1S(=O)(=O)N(CC(=O)O)c1ccccc1", "TGI": "> 100"}, {"smiles": "CCOC(=O)C(C)(C)Oc1ccc2c(-c3ccccc3)cc(=O)oc2c1", "TGI": "> 100"}, {"smiles": "O=C(Nc1ccc(F)cc1)Nc1ccc(Cl)c([N+](=O)[O-])c1", "GI50": 2.92, "TGI": 12.1}, {"smiles": "CNC(=S)OCCC(C)CCCC(C)C", "note": "(centres undefined)", "TGI": 27.9}, {"smiles": "COC1/C=C/OC2(C)Oc3c(C)c(O)c4c(O)c(c(/C=N/Nc5ccc([N+](=O)[O-])cc5[N+](=O)[O-])c(O)c4c3C2=O)NC(=O)C(C)=C/C=C/C(C)C(O)C(C)C(O)C(C)C(OC(C)=O)C1C", "note": "(centres undefined)", "GI50": 5.86, "TGI": 31.1}, {"smiles": "COC(=O)/C(C#N)=C1\\NC(=O)c2ccccc21", "TGI": "> 100"}, {"smiles": "Cc1ccc(NC(=O)Nc2ccc(-c3cccnc3)cc2N2CCC(CO)CC2)cc1", "GI50": 2.77, "TGI": "> 100"}]}]}
